Measurements published in patent US20100003289A1, “Controlled Release Complex Formulation For Oral Administration of Medicine For Diabetes and Method For The Preparation Thereof” (Hanmi Pharm, Co., Ltd., priority 2004, published 2010).

Assay: Stability of glimepiride in solution as function of pH, Test Example 5
Format: physicochemical
Parameters: Rate constant (K): unit not given beside the values
Details: for Log K / Rate constant (K) / T50% (time taken for 50% disintegration of the drug, 0.693/K): room temperature
Procedure: In order to examine the stability of glimepiride in a solution as function of pH changes, only the glimepiride rapid-release portion of the formulation of Example 13 was separated, and dissolved in each of the solutions listed in Table 17. Each of the resulting solutions was kept at room temperature and the glimepiride contents thereof were measured at predetermined times.

[1] = pH 1.2, 1st solution of disintegrating-test in Korea pharmacopoeia
[2] = pH 4.0, British pharmacopoeia buffer solution (1998)
[3] = pH 6.8, 2nd solution of disintegrating-test in Korea pharmacopoeia
[4] = pH 7.8, phosphate buffer solution (Amaryl release solution)

CCC1=C(C)CN(C(=O)NCCc2ccc(S(=O)(=O)NC(=O)N[C@H]3CC[C@H](C)CC3)cc2)C1=O [glimepiride]
Log K [1]: 0.186 | Rate constant (K) [1]: 1.534 | T50% (time taken for 50% disintegration of the drug, 0.693/K) [1]: 0.45 | Log K [2]: −0.472 | Rate constant (K) [2]: 0.337 | T50% (time taken for 50% disintegration of the drug, 0.693/K) [2]: 2.06 | Log K [3]: −0.900 | Rate constant (K) [3]: 0.126 | T50% (time taken for 50% disintegration of the drug, 0.693/K) [3]: 5.50 | Log K [4]: −1.187 | Rate constant (K) [4]: 0.065 | T50% (time taken for 50% disintegration of the drug, 0.693/K) [4]: 10.66 | Log K (pH 10.0, Meglumin 1% solution): −2.721 | Rate constant (K) (pH 10.0, Meglumin 1% solution): 0.002 | T50% (time taken for 50% disintegration of the drug, 0.693/K) (pH 10.0, Meglumin 1% solution): 346.50 | stability of glimepiride as function of the solution pH (solution containing meglumin, judged by lowest K value, FIG. 9): most stable
